Results taken from patent US20250312462A1, “PAK1 DEGRADERS AND METHODS OF USE THEREOF” (INSTITUTE FOR CANCER RESEARCH D/B/A THE RESEARCH INSTITUTE …, priority 2022, published 2025).
Like-named read-outs stand apart in the source and are kept apart here.

Assays:
EPHB1 = EPHB1 (Homo sapiens, UniProt P54762); assay: KINOMEscan; details: read-out: Percent Control
Experimental: (§1) The kinase engagement assay (KINOMEscan®) was performed by DiscoverX assessing binding abilities toward a set of kinases.

QSK = QSK (Homo sapiens, UniProt Q9Y2K2); assay: KINOMEscan; details: read-out: Percent Control
Experimental: as §1

CASK = CASK (Homo sapiens, UniProt O14936); assay: KINOMEscan; details: read-out: Percent Control
Experimental: as §1

EGFR(L861Q) = EGFR(L861Q) (Homo sapiens, UniProt P00533, L861Q); assay: KINOMEscan; details: read-out: Percent Control
Sequence of EGFR(L861Q) (P00533 25-1210 L861Q): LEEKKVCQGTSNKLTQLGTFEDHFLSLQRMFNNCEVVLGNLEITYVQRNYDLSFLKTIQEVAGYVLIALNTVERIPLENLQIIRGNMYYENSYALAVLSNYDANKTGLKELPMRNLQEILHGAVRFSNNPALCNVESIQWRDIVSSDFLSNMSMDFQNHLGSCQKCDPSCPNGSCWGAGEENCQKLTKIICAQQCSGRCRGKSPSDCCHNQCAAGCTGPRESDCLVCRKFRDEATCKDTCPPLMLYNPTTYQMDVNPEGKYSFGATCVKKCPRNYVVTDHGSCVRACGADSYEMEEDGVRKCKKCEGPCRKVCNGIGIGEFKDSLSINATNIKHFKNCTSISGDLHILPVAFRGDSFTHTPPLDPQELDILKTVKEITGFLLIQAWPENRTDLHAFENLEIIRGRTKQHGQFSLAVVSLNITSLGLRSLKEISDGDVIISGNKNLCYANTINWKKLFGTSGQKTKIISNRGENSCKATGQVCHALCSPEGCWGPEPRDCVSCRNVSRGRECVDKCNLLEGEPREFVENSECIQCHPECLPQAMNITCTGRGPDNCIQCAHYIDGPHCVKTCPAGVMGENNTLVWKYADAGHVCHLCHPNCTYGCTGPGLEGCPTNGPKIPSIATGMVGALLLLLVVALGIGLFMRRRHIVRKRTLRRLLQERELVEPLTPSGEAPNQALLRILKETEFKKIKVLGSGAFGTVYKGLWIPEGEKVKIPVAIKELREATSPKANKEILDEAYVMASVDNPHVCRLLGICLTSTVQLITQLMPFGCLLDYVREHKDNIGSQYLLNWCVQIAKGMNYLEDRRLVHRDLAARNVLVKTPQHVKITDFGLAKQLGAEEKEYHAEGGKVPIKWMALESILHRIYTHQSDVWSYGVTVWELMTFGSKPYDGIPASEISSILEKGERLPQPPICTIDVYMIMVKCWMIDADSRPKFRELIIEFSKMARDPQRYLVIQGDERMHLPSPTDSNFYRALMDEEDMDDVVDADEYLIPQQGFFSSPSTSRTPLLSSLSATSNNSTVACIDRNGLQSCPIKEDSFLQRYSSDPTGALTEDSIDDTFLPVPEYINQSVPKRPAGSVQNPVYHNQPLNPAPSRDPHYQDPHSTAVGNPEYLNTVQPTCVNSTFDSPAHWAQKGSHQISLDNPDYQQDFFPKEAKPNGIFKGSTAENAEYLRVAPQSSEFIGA
Experimental: as §1

TNK2 = TNK2 (Homo sapiens, UniProt Q07912); assay: KINOMEscan; details: read-out: Percent Control
Experimental: as §1

WNK3 = WNK3 (Homo sapiens, UniProt Q9BYP7); assay: KINOMEscan; details: read-out: Percent Control
Experimental: as §1

OSR1 = OSR1 (Homo sapiens, UniProt O95747); assay: KINOMEscan; details: read-out: Percent Control
Experimental: as §1

AKT1 = AKT1 (Homo sapiens, UniProt P31749); assay: KINOMEscan; details: read-out: Percent Control
Experimental: as §1

SgK110 = SgK110 (Homo sapiens, UniProt P0C264); assay: KINOMEscan; details: read-out: Percent Control
Sequence of SgK110 (P0C264 whole entry): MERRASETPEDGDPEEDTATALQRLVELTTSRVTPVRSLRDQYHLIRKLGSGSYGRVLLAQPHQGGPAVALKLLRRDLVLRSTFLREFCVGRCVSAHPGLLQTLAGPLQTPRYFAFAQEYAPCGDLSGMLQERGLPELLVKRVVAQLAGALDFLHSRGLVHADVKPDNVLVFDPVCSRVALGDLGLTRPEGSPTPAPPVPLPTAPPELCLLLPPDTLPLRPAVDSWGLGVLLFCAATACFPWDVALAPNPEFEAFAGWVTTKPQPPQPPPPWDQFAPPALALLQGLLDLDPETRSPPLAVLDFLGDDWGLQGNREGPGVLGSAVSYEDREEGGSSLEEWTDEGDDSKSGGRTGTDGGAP
Experimental: as §1

[1] = molecular target: JAK1(JH1domain-catalytic) (Homo sapiens, UniProt P23458); assay: KINOMEscan; details: read-out: Percent Control
Sequence of JAK1(JH1domain-catalytic) (P23458 875-1153 limits assumed): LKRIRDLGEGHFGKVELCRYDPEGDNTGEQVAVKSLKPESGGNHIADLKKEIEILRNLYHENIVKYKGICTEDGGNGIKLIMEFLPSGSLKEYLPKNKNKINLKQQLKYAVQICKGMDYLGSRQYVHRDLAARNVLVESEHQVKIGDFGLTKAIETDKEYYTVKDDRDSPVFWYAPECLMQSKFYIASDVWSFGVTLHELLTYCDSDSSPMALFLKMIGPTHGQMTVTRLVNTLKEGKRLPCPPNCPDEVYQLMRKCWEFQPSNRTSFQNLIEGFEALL
Experimental: as §1

VPS34 = VPS34 (Homo sapiens, UniProt Q8NEB9); assay: KINOMEscan; details: read-out: Percent Control
Experimental: as §1

MAP4K3 = MAP4K3 (Homo sapiens, UniProt Q8IVH8); assay: KINOMEscan; details: read-out: Percent Control
Sequence of MAP4K3 (Q8IVH8 whole entry): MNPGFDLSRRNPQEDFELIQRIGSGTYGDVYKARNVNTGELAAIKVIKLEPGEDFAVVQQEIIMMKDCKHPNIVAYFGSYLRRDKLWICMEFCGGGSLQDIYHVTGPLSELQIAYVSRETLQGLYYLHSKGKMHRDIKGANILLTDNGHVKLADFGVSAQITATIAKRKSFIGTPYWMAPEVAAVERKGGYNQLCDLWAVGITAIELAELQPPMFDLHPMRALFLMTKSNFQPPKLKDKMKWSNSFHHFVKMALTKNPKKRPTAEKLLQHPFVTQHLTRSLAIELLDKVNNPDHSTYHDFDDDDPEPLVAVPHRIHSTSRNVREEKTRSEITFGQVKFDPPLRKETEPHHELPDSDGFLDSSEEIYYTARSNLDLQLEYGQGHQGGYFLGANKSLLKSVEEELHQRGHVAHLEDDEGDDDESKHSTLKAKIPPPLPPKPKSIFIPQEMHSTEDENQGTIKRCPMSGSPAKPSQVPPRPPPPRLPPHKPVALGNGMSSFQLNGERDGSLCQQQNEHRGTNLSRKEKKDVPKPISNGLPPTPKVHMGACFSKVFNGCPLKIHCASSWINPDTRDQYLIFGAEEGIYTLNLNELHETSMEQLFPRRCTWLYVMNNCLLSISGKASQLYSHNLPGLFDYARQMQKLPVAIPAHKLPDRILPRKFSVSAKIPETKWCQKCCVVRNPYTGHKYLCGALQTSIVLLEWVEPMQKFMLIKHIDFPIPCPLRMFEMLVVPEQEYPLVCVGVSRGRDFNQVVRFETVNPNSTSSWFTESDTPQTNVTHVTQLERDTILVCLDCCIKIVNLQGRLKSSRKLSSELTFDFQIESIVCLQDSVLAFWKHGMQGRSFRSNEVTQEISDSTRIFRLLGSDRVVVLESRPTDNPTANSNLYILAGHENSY
Experimental: as §1

ABL1-nonphosphorylated = ABL1-nonphosphorylated (Homo sapiens, UniProt P00519); assay: KINOMEscan; details: read-out: Percent Control
Experimental: as §1

GCN2(Kin.Dom.2, S808G) = GCN2(Kin.Dom.2, S808G) (Homo sapiens, UniProt Q9P2K8, S808G); assay: KINOMEscan; details: read-out: Percent Control
Experimental: as §1

FLT3(D835Y) = FLT3(D835Y) (Homo sapiens, UniProt P36888, D835Y); assay: KINOMEscan; details: read-out: Percent Control
Experimental: as §1

TRKA = TRKA (Homo sapiens, UniProt P04629); assay: KINOMEscan; details: read-out: Percent Control
Experimental: as §1

SRPK1 = SRPK1 (Homo sapiens, UniProt Q96SB4); assay: KINOMEscan; details: read-out: Percent Control
Sequence of SRPK1 (Q96SB4 whole entry): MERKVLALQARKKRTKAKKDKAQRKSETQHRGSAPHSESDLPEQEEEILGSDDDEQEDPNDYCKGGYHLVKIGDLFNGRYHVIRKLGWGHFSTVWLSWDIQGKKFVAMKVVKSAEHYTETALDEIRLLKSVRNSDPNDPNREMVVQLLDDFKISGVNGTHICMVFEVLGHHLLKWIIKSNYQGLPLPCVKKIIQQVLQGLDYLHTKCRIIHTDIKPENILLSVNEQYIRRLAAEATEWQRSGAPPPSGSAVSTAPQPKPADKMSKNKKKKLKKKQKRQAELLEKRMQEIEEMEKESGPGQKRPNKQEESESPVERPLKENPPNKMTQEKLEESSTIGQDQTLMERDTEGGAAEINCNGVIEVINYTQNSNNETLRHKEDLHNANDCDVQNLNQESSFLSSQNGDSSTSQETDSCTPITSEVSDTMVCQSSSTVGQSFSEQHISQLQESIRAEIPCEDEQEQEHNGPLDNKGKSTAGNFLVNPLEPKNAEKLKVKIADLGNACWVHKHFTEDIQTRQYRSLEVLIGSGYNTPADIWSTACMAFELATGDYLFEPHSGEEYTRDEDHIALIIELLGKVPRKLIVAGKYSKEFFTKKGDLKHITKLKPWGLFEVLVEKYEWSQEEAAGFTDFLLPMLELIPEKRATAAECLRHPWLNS
Experimental: as §1

NEK6 = NEK6 (Homo sapiens, UniProt Q9HC98); assay: KINOMEscan; details: read-out: Percent Control
Sequence of NEK6 (Q9HC98 whole entry): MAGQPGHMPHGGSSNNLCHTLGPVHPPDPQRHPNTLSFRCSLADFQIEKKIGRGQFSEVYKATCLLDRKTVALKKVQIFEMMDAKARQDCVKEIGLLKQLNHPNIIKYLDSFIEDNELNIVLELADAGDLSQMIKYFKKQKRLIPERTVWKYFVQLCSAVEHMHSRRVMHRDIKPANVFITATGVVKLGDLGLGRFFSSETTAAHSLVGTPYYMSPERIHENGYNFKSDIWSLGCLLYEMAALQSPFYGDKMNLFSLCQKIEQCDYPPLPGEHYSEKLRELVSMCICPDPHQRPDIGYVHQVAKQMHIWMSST
Experimental: as §1

RET = RET (Homo sapiens, UniProt P07949); assay: KINOMEscan; details: read-out: Percent Control
Experimental: as §1

PIP5K1A = PIP5K1A (Homo sapiens, UniProt Q99755); assay: KINOMEscan; details: read-out: Percent Control
Experimental: as §1

VEGFR2 = VEGFR2 (Homo sapiens, UniProt P35968); assay: KINOMEscan; details: read-out: Percent Control
Sequence of VEGFR2 (P35968 20-1356): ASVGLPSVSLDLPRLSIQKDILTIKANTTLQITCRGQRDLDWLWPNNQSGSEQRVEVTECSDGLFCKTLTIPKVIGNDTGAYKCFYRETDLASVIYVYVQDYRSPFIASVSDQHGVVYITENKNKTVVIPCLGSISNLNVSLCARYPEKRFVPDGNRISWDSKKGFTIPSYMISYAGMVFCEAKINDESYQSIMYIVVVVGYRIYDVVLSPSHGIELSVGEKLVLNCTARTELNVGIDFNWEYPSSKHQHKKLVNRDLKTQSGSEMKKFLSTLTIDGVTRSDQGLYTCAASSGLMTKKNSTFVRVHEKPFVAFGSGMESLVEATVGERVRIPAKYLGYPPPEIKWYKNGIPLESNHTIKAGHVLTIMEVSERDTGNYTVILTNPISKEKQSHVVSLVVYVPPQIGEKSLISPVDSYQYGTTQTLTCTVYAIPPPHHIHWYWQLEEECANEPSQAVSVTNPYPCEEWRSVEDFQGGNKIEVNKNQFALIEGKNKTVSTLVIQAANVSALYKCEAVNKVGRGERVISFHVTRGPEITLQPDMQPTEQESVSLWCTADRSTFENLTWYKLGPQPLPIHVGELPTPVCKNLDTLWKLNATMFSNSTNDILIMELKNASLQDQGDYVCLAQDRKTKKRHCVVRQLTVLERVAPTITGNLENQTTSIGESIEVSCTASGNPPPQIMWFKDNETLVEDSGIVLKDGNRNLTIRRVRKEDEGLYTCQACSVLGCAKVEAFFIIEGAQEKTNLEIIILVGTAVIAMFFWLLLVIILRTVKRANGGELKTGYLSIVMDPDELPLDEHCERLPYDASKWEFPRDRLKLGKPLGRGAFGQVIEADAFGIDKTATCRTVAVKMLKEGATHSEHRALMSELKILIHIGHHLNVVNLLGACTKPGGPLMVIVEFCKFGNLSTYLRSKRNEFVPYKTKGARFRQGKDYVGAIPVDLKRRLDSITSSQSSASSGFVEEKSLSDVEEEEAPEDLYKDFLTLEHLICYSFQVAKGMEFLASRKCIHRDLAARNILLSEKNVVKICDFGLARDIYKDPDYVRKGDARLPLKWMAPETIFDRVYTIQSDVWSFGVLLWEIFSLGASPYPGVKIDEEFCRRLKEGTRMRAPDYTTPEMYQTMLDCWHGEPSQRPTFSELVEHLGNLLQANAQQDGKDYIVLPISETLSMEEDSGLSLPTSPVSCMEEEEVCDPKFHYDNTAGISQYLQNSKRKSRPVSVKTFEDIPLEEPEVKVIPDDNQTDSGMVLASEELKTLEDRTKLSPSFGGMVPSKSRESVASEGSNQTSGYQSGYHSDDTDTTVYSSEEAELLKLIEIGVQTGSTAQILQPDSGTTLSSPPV
Experimental: as §1

FLT3(ITD) = assay: KINOMEscan; details: 10 μM
Experimental: as §1

EPHA6 = EPHA6 (Homo sapiens, UniProt Q9UF33); assay: KINOMEscan; details: read-out: Percent Control
Experimental: as §1

MEK3 = MEK3 (Homo sapiens, UniProt P46734); assay: KINOMEscan; details: read-out: Percent Control
Experimental: as §1

ERK3 = ERK3 (Homo sapiens, UniProt Q16659); assay: KINOMEscan; details: read-out: Percent Control
Experimental: as §1

OVCAR3 cells = assay: Cell proliferation, MTT assay; type: cell-based; details: Homo sapiens, OVCAR-3, OVCAR3 cells, read-out: EC50, anti-proliferative
Experimental: […]. Cell proliferation was assessed by MTT assay. […].
Cells were plated at 2×10^3 cells per well in 96-well plates overnight and treated with various concentrations of Pak degraders for 72 hours. Cell viability was measured by MTT assay and the half maximal inhibitory concentration (IC50) was calculated using GraphPad Prism. Triplicates were performed for each sample and medium alone was used as a blank.
The anti-proliferative effects of PAK1 degradation and inhibition were evaluated. […]. […] […]. […] […].

TXK = TXK (Homo sapiens, UniProt P42681); assay: KINOMEscan; details: read-out: Percent Control
Experimental: as §1

PIK3CA(C420R) = PIK3CA(C420R) (Homo sapiens, UniProt P42336, C420R); assay: KINOMEscan; details: read-out: Percent Control
Experimental: as §1

CLK1 = CLK1 (Homo sapiens, UniProt P49759); assay: KINOMEscan; details: read-out: Percent Control
Experimental: as §1

DAPK1 = DAPK1 (Homo sapiens, UniProt P53355); assay: KINOMEscan; details: read-out: Percent Control
Experimental: as §1

CDKL2 = CDKL2 (Homo sapiens, UniProt Q92772); assay: KINOMEscan; details: read-out: Percent Control
Experimental: as §1

EGFR = EGFR (Homo sapiens, UniProt P00533); assay: KINOMEscan; details: read-out: Percent Control
Experimental: as §1

TYRO3 = TYRO3 (Homo sapiens, UniProt Q06418); assay: KINOMEscan; details: read-out: Percent Control
Experimental: as §1

ERK5 = ERK5 (Homo sapiens, UniProt Q13164); assay: KINOMEscan; details: read-out: Percent Control
Experimental: as §1

GRK4 = GRK4 (Homo sapiens, UniProt P32298); assay: KINOMEscan; details: read-out: Percent Control
Experimental: as §1

Compound: O=C1CCC(N2C(=O)c3cccc(NCCCCCCCCNC(=O)N4CC[C@H](NC5=Nc6cc(F)ccc6N(CC(F)F)c6ccc(Cl)cc65)C4)c3C2=O)C(=O)N1 (stereo partly drawn) [BJG-05-039, (3S)-3-((2-Chloro-5-(2,2-difluoroethyl)-8-fluoro-5H-dibenzo[b,e][1,4]diazepin-11-yl)amino)-N-(8-((2-(2,6-dioxopiperidin-3-yl)-1,3-dioxoisoindolin-4-yl)amino)octyl)pyrrolidine-1-carboxamide]
- remaining binding at 10 µM (EPHB1): 98%
- remaining binding at 10 µM (QSK): 78%
- remaining binding at 10 µM (CASK): 99%
- remaining binding at 10 µM (EGFR(L861Q)): 88%
- remaining binding at 10 µM (TNK2): 92%
- remaining binding at 10 µM (WNK3): 89%
- remaining binding at 10 µM (OSR1): 100%
- remaining binding at 10 µM (AKT1): 83%
- remaining binding at 10 µM (SgK110): 83%
- remaining binding at 10 µM [1]: 42%
- remaining binding at 10 µM (VPS34): 100%
- remaining binding at 10 µM (MAP4K3): 72%
- remaining binding at 10 µM (ABL1-nonphosphorylated): 83%
- remaining binding at 10 µM (GCN2(Kin.Dom.2, S808G)): 56%
- remaining binding at 10 µM (FLT3(D835Y)): 63%
- remaining binding at 10 µM (TRKA): 72%
- remaining binding at 10 µM (SRPK1): 87%
- remaining binding at 10 µM (NEK6): 91%
- remaining binding at 10 µM (RET): 46%
- remaining binding at 10 µM (PIP5K1A): 95%
- remaining binding at 10 µM (VEGFR2): 100%
- Percent Control (FLT3(ITD)): 87
- remaining binding at 10 µM (EPHA6): 94%
- remaining binding at 10 µM (MEK3): 94%
- remaining binding at 10 µM (ERK3): 64%
- EC50 (OVCAR3 cells; first statement of b311): 0.0084 µM
- EC50 (OVCAR3 cells; second listing of b311): 0.102 µM
- remaining binding at 10 µM (TXK): 90%
- remaining binding at 10 µM (PIK3CA(C420R)): 100%
- remaining binding at 10 µM (CLK1): 57%
- remaining binding at 10 µM (DAPK1): 47%
- remaining binding at 10 µM (CDKL2): 77%
- remaining binding at 10 µM (EGFR): 74%
- remaining binding at 10 µM (TYRO3): 72%
- remaining binding at 10 µM (ERK5): 57%
- remaining binding at 10 µM (GRK4): 71%
